The values that follow come from paper PMC6018403 (Frontiers in Pharmacology, 2018).

As a reminder, the Cmax is the peak of the concentration-time curve. By Tmax is commonly meant the time from dosing to the highest level.

Like-named read-outs stand apart in the source and are kept apart here.

A short description of data set [1]: Multi-component pharmacokinetic study of GQD, GQD-GC and single herb extracts in rats (plasma, LC/MS/MS). It counts as in vivo, Sprague-Dawley rats. The note with it: for AUC(0-t) / Cmax / half-life / Tmax: male, Sprague-Dawley, rat; for AUC(0-t): po, read-out: AUClast; for Cmax: read-out: Cmax; for half-life: read-out: T1/2 (converted); for Tmax: read-out: Tmax. In short, it runs like this:
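Male Sprague-Dawley rats (220–250 g, n = 10 per group) dosed orally with GQD, GQD-GC (1.0 g crude drug/mL) or single-herb decoctions. Plasma analytes quantified by LC/MS/MS in positive-ESI SRM mode. Cmax and Tmax taken from measured data, other parameters by non-compartmental or compartmental analysis; mean ± SD.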

The test system of data set [2] is Caco-2 cell monolayer. Nature of the data set: Caco-2 cell monolayer permeability test (bidirectional transport of berberine). The format is in vitro ADME, Human. The note with it: BER 5 μM. The protocol: The final concentration of GQD, GQD−GC, and Huang-Lian water extracts were 32, 28, and 6 μg/mL, respectively. […]
containing glucose (25 mM) and HEPES (10 mM). The final concentration of berberine was 5 µM. The final concentration of DMSO was below 1% (v/v). […]
inducer of Caco-2 cells, respectively. For the inhibitor experiments, the Caco-2 cells were cultivated in DMEM until the 21st day. After removal of the medium, the cells were incubated for 30 minutes with HBSS containing 5 µM of verapamil. For the inducer experiments, the cells were cultivated in DMEM until the 18th day, and then […]
was removed on the 21st day, and the cells were then incubated for 30 min with HBSS.
Berberine and glycyrrhizic acid were added to the system following HBSS incubation.
For all bidirectional transport assays, samples (300 µL) were collected after 30, 60, 90, […]
with an equal volume of HBSS. The samples were freeze-dried and then dissolved in 300 µL of methanol. The solutions were filtered through 0.22-µm membranes before […]
3. Inhibitor and inducer experiments […]
respectively. For the inhibition experiments, Caco-2 cells were cultivated in DMEM until the 21st day. After removal of the medium, the cells were incubated for 30 minutes with HBSS containing verapamil (5 µM). For induction experiments, the cells were cultivated in DMEM until the 18th day, and then cultivated in DMEM […]
The medium was removed on the 21st day, and the cells were then incubated for 30 min with HBSS. Berberine and glycyrrhizic acid were added to the system following HBSS incubation.

Where [3] appears, read: GC (Gan-Cao) group: rats, oral extract 2.36 g/kg, plasma.
Where [4] appears, read: plasma, 18.9 g/kg, GQD group: rats, oral GQD extract 18.9 g/kg, plasma.
[5] abbreviates: GQD group: rats, oral GQD extract 18.9 g/kg, plasma.
[6] abbreviates: GQD-GC group (GQD without Gan-Cao): rats, oral 16.5 g/kg, plasma.
Setting [7] is: HL (Huang-Lian) group: rats, oral extract 3.54 g/kg, plasma.

On to `CC1(C)[C@@H](O[C@H]2O[C@H](C(=O)O)[C@@H](O)[C@H](O)[C@H]2O[C@@H]2O[C@H](C(=O)O)[C@@H](O)[C@H](O)[C@H]2O)CC[C@]2(C)[C@H]3C(=O)C=C4[C@@H]5C[C@@](C)(C(=O)O)CC[C@]5(C)CC[C@@]4(C)[C@]3(C)CC[C@@H]12` [Compound 36, glycyrrhizic acid], for which, in data set [1] (setting [3]), the AUClast was determined as 790.47 ± 362.54 ng·h/mL, the Cmax was 46.4 ± 0.89 ng/mL, the half-life was 4.08 ± 1.07 h and the Tmax stood at 5.89 ± 0.98 h. For the same compound, the AUC(0-t) in data set [1] (setting [4]) is 871 ± 571 ng·h/mL. Besides, the AUC(0-t) in data set [1] (plasma, 18.9 g/kg, GQD group: rats, oral GQD 18.9 g/kg (1.5-fold of clinical dosage), plasma) turned out to be 871 ± 571 ng·h/mL. In data set [1] (setting [5]), the Cmax stood at 55.6 ± 14.3 ng/mL, the half-life was 4.78 ± 9.98 h and the Tmax was 6.9 ± 0.28 h. The “change of pharmacokinetics by GQD compared with Gan-Cao” value in data set [1] (rats, oral) was “hardly changed”.
Turning to `COc1ccc2cc3[n+](cc2c1OC)CCc1cc2c(cc1-3)OCO2` [Compound 24, berberine], the AUC(0-t) in data set [1] (plasma, 3.54 g/kg, HL (Huang-Lian) group: rats, oral extract 3.54 g/kg, plasma) came to 198 ± 76.9 ng·h/mL; in data set [1] (plasma, 3.54 g/kg, Huang-Lian group: rats, oral 3.54 g/kg, plasma) it was 198 ± 76.9 ng·h/mL; in data set [1] (plasma, 16.5 g/kg, GQD-GC group (GQD without Gan-Cao): rats, oral 16.5 g/kg, plasma), 149 ± 70.8 ng·h/mL; in data set [1] (plasma, 16.5 g/kg, GQD−GC group: rats, oral 16.5 g/kg, plasma), 149 ± 70.8 ng·h/mL; in data set [1] (setting [4]) it was 389 ± 187 ng·h/mL. Moreover, the values for the Cmax in data set [1] (setting [5]), in data set [1] (setting [6]) and in data set [1] (setting [7]) were 28.2 ± 17.4 ng/mL, 32.3 ± 13.2 ng/mL and 76.7 ± 27.9 ng/mL, respectively. Moreover, the half-life is 11.4 ± 2.78 h in data set [1] (setting [5]), 7.09 ± 0.65 h in data set [1] (setting [6]) and 9.3 ± 1.67 h in data set [1] (setting [7]). Also, the Tmax was 0.39 ± 0.76 h in data set [1] (setting [5]), 0.35 ± 0.23 h in data set [1] (setting [6]) and 0.29 ± 1.12 h in data set [1] (setting [7]). The “increase of AUClast in GQD group compared with the Huang-Lian group” value in data set [1] (rats, oral, GQD vs Huang-Lian) was found to be 96.5%. Further, the “improvement of plasma concentrations by GQD (vs Huang-Lian)” value in data set [1] (rats, oral, abstract) is reported as “at least 30%”. The “transport rate of BER, PAB (influx, apical to basolateral)” value in data set [2] (with GLY 5 μM) was found to be 84%; in data set [2] (without GLY) it was 59%. The “transport rate of BER, PBA (efflux)” value in data set [2] (with GLY 5 μM) was 10%; in data set [2] (without GLY), 34%.
